Measured values taken from patent publication US8188087B2, “Crystalline (3-cyano-1H-indol-7-yl)-[4-(4-fluorophenethyl) piperazin-1-yl]methanone phosphate” (Merck Patent GmbH, priority 2006, dated 2012).
Counter-ions that a name gives are not always drawn. One block for each compound: values may come before it.

Tests used:
Format in all cases: physicochemical
[1] = Water retained in the crystal lattice in equilibrium with relative humidity; details: in equilibrium with a relative humidity of about 5% to about 95%
Excerpt: Two new crystalline forms are characterized by, inter alia, x-ray powder diffractometry, or alternatively, solid state nuclear magnetic resonance spectroscopy. One preferred embodiment of the present invention provides for a crystalline (3-cyano-1H-indol-7-yl)-[4-(4-fluorophenethyl)piperazin-1-yl]methanone phosphate hydrate Form I (Form I). Form I is characterized as a non-stoichiometric hydrate in that it retains water about 1.2% by weight of compound (up to approximately ⅓ mole of water per mole of compound) within the crystalline lattice when in equilibrium with a relative humidity of about 5% to about 95%.

[2] = Solid-state (polymorphic/crystal form) stability
Excerpt: It is disadvantageous for a formulation to comprise a plurality of crystal forms of an active ingredient in that they may have different bioavailabilities and/or stability. Even slight variations in production conditions may compromise the reproducibility of the crystal form and therefore the performance of the formulated product. In addition, poorly crystalline materials are typically less desirable than highly crystalline materials because they are generally more difficult to handle during formulation processes.
The Anhydrate is not stable under the conditions necessary for obtaining an SSNMR spectrum.

[3] = Solubility in the crystallization/isolation solvent systems; details: all of the solvent systems tested; isolation temperatures about 5° C. to about 22° C.
Description: Suitable solvents include, but are not limited to, methanol, ethanol, propan-1-ol, propan-2-ol, butan-2-ol, tetrahydrofuran, acetone, and the like. Suitable temperatures for salt formation typically range between about 50° C. to about 75° C. depending on the solvent. One preferred temperature range for salt formation is from the temperature at which the (3-cyano-1H-indol-7-yl)-[4-(4-fluorophenethyl)piperazin-1-yl]methanone is soluble up to the reflux temperature of the solvent. […] However, this may result in a slurry to slurry conversion of (3-cyano-1H-indol-7-yl)-[4-(4-fluorophenethyl)piperazin-1-yl]methanone to the salt.
Isolation temperatures typically range between about 5° C. and about 22° C.

water retained within the crystalline lattice [1]: about 1.2 % by weight of compound | water retained within the crystalline lattice (molar) [1]: ⅓ | crystal form conversion on dehydration ([2]; dehydrating the solid at 0% RH and ambient temperature): may be converted to the Anhydrate
Compound: N#Cc1c[nH]c2c(C(=O)N3CCN(CCc4ccc(F)cc4)CC3)cccc12.O=P(O)(O)O [Form I, (3-cyano-1H-indol-7-yl)-[4-(4-fluorophenethyl)piperazin-1-yl]methanone phosphate hydrate Form I]

Compound: N#Cc1c[nH]c2c(C(=O)N3CCN(CCc4ccc(F)cc4)CC3)cccc12 [hydrochloride salt, (3-cyano-1H-indol-7-yl)-[4-(4-fluorophenethyl)piperazin-1-yl]-methanone, reference compound]
solid form stability upon compression ([2]; upon compression during the manufacturing process): converts from a single polymorphic form into a second, poorly crystalline, metastable polymorphic form

solubility in solvent systems tested [3]: low solubility
Compound: N#Cc1c[nH]c2c(C(=O)N3CCN(CCc4ccc(F)cc4)CC3)cccc12.O=P(O)(O)O [The salt, (3-Cyano-1H-indol-7-yl)-[4-(4-fluorophenethyl)piperazin-1-yl]methanone phosphate]

crystal form stability under anhydrous conditions ([2]; anhydrous conditions): stable | crystal form stability under SSNMR conditions ([2]; conditions necessary for obtaining an SSNMR spectrum): not stable | crystal form conversion on exposure to water ([2]; exposure to water, including atmospheric humidity): may be converted to Form I
Compound: N#Cc1c[nH]c2c(C(=O)N3CCN(CCc4ccc(F)cc4)CC3)cccc12.O=P(O)(O)O [Anhydrate, (3-cyano-1H-indol-7-yl)-[4-(4-fluorophenethyl)piperazin-1-yl]methanone phosphate anhydrate]
